Four compounds from publication PMC9501899 (Journal of the American Chemical Society, 2022) can be followed below.

Like-named read-outs stand apart in the source and are kept apart here.

The subject of test [1] is Rab10-pThr73. Briefly: Rab10 dephosphorylation in WT MEFs by Western blotting. In kind it is cell-based, mouse. How it is done: (§1) These PROTACs were then biologically evaluated in mouse embryonic fibroblasts (MEFs) by Western blotting. Briefly, MEFs were treated with compounds at 33 nM and 1 μM for 4 h (Figure 2) and 24 h (Figure S2) separately, and the intracellular level of LRRK2, phosphorylated LRRK2 at Ser935, and phosphorylated Rab10 (pRab10) at Thr73 was determined. Rab10[5],[49] is one of the bona fide substrates of LRRK2, whose phosphorylation status is directly affected by the LRRK2 kinase activity and protein level. Phosphorylation of LRRK2 at Ser935 is a well-studied biomarker site used to assess the efficacy of type 1 LRRK2 inhibitors.[30]
(§2) Primary MEFs were generated as described in a previous study.[80] Briefly, the uterine horn was collected from adult female mice at day E12.5 and transferred to a 10 cm tissue culture dish containing cold PBS. Two forceps were used to tear the yolk sacs to isolate each embryo. Forceps were cleaned thoroughly with 70% ethanol between each embryo isolation. The embryos were culled, and a tissue piece was collected in a polymerase chain reaction (PCR) tube for genotyping. The red tissue of the embryo was removed, and the remainder was minced with a scalpel blade and incubated with a 7.5 mL trypsin–ethylenediaminetetraacetic acid (EDTA) solution for 10 min in a 37 °C, 5% CO2 tissue culture incubator. The dish was removed from the incubator and checked under a light microscope for single cells. Complete media (7.5 mL) was added to the trypsinized cells, and the cell suspension was transferred to a 15 mL Falcon tube and centrifuged at 1200 rpm for 5 min at room temperature. The trypsin was aspirated, the cell pellet was resuspended in a 5 mL fresh complete media, and the cell suspension was plated in a 60 mm tissue culture dish and incubated in a 37 °C, 5% CO2 tissue culture incubator. The MEFs at this stage were considered as passage 0 and were passaged and expanded for experimental use once the genotype was confirmed by allelic sequencing and immunoblotting. MEFs were cultured in Dulbecco’s modified Eagle’s medium (DMEM) containing 10% (v/v) fetal bovine serum (FBS), 2 mM L-glutamine, 100 U/mL penicillin, and 100 μg/mL streptomycin supplemented with 1× nonessential amino acids and 1 mM sodium pyruvate.
(§3) Culturing and passaging of adherent cell lines were carried out using an aseptic technique in CL1 or CL2 (for PBMC isolation) biological safety cabinets. All cells were incubated in a 37 °C incubator with 5% CO2. Cell lines were regularly tested for mycoplasma contamination. For Western blot assay, the cells were seeded in six-well plates. For immunoprecipitation of LRRK2, SH-SY5Y cells (cultured in DMEM-F12, supplemented with 15% (v/v) FBS, 100 U/mL penicillin and 100 μg/mL streptomycin, 1× nonessential amino acids, and 1 mM sodium pyruvate) were seeded in a 10 cm dish. All cells were treated with the indicated compounds such that the final concentration of DMSO was 0.1%. Following the treatment of cells with compounds at indicated concentrations and time periods, the media was removed and the cells were washed with PBS and lysed in a 100 μL ice-cold complete lysis buffer containing 50 mM tris–HCl pH 7.4, 1 mM EGTA, 10 mM 2-glycerophosphate, 50 mM sodium fluoride, 5 mM sodium pyrophosphate, 270 mM sucrose, supplemented with 1 μg/mL microcystin-LR, 1 mM sodium orthovanadate, complete EDTA-free protease inhibitor cocktail (Roche), and 1% (v/v) Triton X-100. The cells were immediately placed on ice and were scraped and collected into 1.5 mL Eppendorf tubes. Cell lysates were incubated on ice for 10 min prior to centrifugation at 15 000g at 4 °C for 15 min.

The target of test [2] is T1, LRRK2-NanoLuc with VCB protein (Homo sapiens, UniProt P40337+Q5S007).
T1 construct: host or cells: HEK293 (digitonin-permeabilized), recombinant VCB added
Kind of test: NanoBRET-based ternary binding and cooperativity assay. As to conditions: for IC50: compound preincubated with VCB, lysate of HEK293 cells, LRRK2 tracer; for cooperativity (α): IC50 ratio without/with VCB. As to the method:
(A). Schematic illustration of the binary and ternary LRRK2 engagement assays. […] The fractional occupancy of the tracer is plotted against the concentrations of the compounds and fitted into the “nonlinear regression, one site-log IC50” model in GraphPad to obtain the IC50 values. The IC50 ratio between the blue curve and red cure is calculated as cooperativity (α). […] The NanoBRET signal was plotted against the compounds’ concentrations and fitted into “nonlinear regression, Gaussian” model in GraphPad. Error bars are mean ± SEM from three biological independent experiments.
Titration of PROTACs to the lysed cells and LRRK2 tracer in the presence or absence of recombinant VCB protein (VHL complexed with elongin B–elongin C) gives ternary and binary binding affinities of PROTACs for LRRK2, respectively. Similarly, the ternary complex formation assay also used LRRK2-NanoLuc transiently expressed in HEK293 as the BRET donor, but the acceptor was recombinant VCB protein labeled with BODIPY^576/589via the NHS ester-activated cross-linking reaction. PROTACs that can bridge LRRK2 and VCB together will produce a BRET signal (Figure 10E).
The HEK293 cells were transfected with the LRRK2-NanoLuc fusion vector (Promega, NV3401) following Promega’s protocol and seeded into a white 384-well plate (Corning3570) at a density of 6000 cells/well. The cells were then treated with 50 μg/mL of digitonin, 125 nM of LRRK2 tracer, testing compounds at decreasing concentrations (11 concentrations with a 2-fold serial dilution starting from 10 μM) or testing compounds and VCB mix (11 concentrations with a 2-fold serial dilution starting from 10 μM compound). The first six concentrations of VCB start from 32 μM with a 2-fold dilution, while the last five concentrations of VCB were kept fixed at 1 μM. The NanoBRET NanoGlo Substrate (Promega, N157C) was added at concentrations recommended by the manufacturer’s protocol. In the maximum signal control samples (DMSO control), DMSO was added instead of testing compounds. In the minimum signal control samples (no tracer control), DMSO and LRRK2 tracer dilution buffer were used to replace testing compounds and LRRK2 tracer separately. The filtered luminescence was measured within 10 min following the addition of the substrate on a PHERAstar (BMG LABTECH) plate reader equipped with a 450 nm bandpass filter (donor) and a 600 nm long-pass filter (acceptor). The fractional occupancy was calculated according to the equation: fractional occupancy = (mBRETtesting compound – mBRETno tracer control)/(mBRETDMSO control – mBRETno tracer control).
A general note: In BRET a luciferase serves as donor, and the signal depends on an acceptor being close.

For test [3], the target named is T2, G2019S LRRK2 (Mus musculus, UniProt Q5S006, G2019S).
T2 construct: endogenous in cells; host or cells: G2019S LRRK2 MEFs
Kind of test: LRRK2 degradation in G2019S LRRK2 MEFs by Western blotting. In kind it is cell-based. To be noted: for Dmax: dose-dependent degradation. How it is done: as §1, §2, §3
In general terms: Immunoblotting shows a protein as a band on a membrane.

T2 sequence (Q5S006 whole entry G2019S): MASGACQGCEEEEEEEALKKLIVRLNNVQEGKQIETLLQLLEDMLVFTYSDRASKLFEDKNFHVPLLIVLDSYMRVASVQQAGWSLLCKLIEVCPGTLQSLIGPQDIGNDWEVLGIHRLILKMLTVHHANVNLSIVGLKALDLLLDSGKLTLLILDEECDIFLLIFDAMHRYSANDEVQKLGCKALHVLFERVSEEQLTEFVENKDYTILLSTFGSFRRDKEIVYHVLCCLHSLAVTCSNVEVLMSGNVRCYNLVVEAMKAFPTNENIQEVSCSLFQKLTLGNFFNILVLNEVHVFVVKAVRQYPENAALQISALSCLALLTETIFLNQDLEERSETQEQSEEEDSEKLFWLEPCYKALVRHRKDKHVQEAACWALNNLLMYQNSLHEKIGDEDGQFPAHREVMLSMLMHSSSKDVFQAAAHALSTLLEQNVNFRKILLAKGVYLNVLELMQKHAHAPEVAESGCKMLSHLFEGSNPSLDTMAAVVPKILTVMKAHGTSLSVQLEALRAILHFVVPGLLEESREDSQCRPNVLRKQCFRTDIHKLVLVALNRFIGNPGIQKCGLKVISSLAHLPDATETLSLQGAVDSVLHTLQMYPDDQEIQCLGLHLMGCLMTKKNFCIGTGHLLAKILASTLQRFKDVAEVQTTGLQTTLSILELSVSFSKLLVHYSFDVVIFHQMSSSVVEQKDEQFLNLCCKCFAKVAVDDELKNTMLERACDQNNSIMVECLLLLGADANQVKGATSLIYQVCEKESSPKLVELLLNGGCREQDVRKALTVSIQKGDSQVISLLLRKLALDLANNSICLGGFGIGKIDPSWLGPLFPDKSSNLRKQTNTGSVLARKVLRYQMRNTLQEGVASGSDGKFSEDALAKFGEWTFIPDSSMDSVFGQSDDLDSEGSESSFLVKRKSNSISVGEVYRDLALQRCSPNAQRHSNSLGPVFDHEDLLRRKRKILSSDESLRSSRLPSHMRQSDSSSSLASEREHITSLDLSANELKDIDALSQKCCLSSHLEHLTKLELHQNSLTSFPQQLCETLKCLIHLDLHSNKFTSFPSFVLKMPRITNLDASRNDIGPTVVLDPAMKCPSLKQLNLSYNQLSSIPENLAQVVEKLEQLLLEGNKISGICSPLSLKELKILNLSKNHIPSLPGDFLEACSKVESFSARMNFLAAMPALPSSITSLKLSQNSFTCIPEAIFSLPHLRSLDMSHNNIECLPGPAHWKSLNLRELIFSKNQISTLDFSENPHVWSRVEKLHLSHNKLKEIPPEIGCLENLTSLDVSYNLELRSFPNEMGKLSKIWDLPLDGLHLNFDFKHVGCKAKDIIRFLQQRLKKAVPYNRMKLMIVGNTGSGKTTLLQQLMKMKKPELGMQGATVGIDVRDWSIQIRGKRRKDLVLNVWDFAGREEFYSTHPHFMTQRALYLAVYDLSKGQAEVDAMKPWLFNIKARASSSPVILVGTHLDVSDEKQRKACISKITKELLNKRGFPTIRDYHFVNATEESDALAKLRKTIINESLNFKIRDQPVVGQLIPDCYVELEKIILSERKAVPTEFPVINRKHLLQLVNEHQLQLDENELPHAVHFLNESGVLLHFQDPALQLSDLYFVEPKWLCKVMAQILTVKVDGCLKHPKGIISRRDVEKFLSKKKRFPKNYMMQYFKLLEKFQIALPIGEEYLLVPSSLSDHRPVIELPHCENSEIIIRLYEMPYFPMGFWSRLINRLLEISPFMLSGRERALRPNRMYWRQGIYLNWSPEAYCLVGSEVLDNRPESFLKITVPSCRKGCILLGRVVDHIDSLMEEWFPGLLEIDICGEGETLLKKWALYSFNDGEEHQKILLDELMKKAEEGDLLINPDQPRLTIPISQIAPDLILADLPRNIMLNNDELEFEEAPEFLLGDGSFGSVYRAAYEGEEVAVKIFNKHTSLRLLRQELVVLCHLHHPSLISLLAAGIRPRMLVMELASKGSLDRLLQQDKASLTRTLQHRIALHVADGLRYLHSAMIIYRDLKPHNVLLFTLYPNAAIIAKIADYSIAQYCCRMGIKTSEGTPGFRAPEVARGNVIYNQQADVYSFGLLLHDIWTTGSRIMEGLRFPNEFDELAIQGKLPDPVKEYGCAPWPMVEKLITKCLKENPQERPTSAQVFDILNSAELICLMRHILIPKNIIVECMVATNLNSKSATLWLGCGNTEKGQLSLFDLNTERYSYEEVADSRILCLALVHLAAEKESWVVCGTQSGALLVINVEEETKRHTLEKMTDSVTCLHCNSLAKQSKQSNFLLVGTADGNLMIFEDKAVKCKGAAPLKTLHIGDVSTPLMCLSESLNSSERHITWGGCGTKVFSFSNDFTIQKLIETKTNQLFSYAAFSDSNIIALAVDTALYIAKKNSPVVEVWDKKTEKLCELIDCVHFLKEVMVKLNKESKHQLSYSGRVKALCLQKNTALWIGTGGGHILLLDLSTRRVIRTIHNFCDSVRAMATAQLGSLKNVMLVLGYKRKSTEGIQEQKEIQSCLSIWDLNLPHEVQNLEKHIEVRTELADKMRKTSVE

Consider `CNc1nc(Nc2ccc(C(=O)N3CCN(CCOCCOCCSC(C)(C)[C@H](NC(=O)C4(F)CC4)C(=O)N4C[C@H](O)C[C@H]4C(=O)NCc4ccc(-c5scnc5C)cc4)CC3)cc2OC)ncc1Cl` [SD75], for which the “WT-pRab10 percent label at the end of the time curve” value (“WT-pRab10 percent label at the end” for short) in test [1] (1 µM) is 41%. Further, the EC50 – broadly, the concentration needed to bring the measured effect to its halfway point – in test [1] (Mus musculus, 24 h, WT MEFs, read-out: EC50 for the dephosphorylation of Rab10 (WT-pRab10)) was 2270 nM. Besides, the IC50 (usually the concentration that inhibits the measured activity by half) in test [2] turned out to be 1400 nM. Further, the Dmax (usually the largest share of the target that was removed) at 1 µM in test [3] (1 μM (1000 nM), read-out: Dmax (G2019S LRRK2), time-dependent degradation) was determined as 81%. For the same compound, the Dmax in test [3] (24 h, read-out: Dmax,24h (G2019S LRRK2)) was 58%.

On to `CNc1nc(Nc2ccc(C(=O)N3CCN(C[C@H]4CC[C@H](CSC(C)(C)[C@H](NC(=O)C5(F)CC5)C(=O)N5C[C@H](O)CC5C(=O)NCc5ccc(-c6scnc6C)cc5)CC4)CC3)cc2OC)ncc1Cl` (stereo partly drawn) [XL01126, (2S,4R)-1-((R)-3-((((1R,4R)-4-((4-(4-((5-Chloro-4-(methylamino)pyrimidin-2-yl)amino)-3-methoxybenzoyl)piperazin-1-yl)methyl)cyclohexyl)methyl)thio)-2-(1-fluorocyclopropane-1-carboxamido)-3-methylbutanoyl)-4-hydroxy-N-(4-(4-methylthiazol-5-yl)benzyl)pyrrolidine-2-carboxamide], for which, in test [1] (0.3 µM), the “WT-pRab10 percent label at the end” value amounted to 94%. Further, the EC50 in test [1] (Mus musculus, 4 h, WT MEFs, read-out: EC50 WT-pRab10) amounted to 54 nM. In test [2], the “cooperativity (α)” value is recorded as 5.7 and the IC50 amounted to 350 nM. Besides, the DC50 – broadly, the concentration at which degradation of the target reaches its halfway point – in test [3] (4 h) is 14 nM.

`CNc1nc(Nc2ccc(C(=O)N3CCN(C[C@H]4CC[C@@H](CSC(C)(C)[C@H](NC(=O)C5(F)CC5)C(=O)N5C[C@H](O)CC5C(=O)NCc5ccc(-c6scnc6C)cc5)CC4)CC3)cc2OC)ncc1Cl` (some centres unmarked) [XL01134]: in test [1] (0.3 µM), the “WT-pRab10 percent label at the end” value was 88%. Moreover, the IC50 in test [1] (Mus musculus, 4 h, WT MEFs, read-out: WT-pRab10 IC50) was found to be 74 nM; in test [2], 790 nM. In addition, the “cooperativity (α)” value in test [2] came out at 1.4. This compound also returned a DC50 in test [3] (4 h) of 7 nM. The Dmax in test [3] (4 h, read-out: Dmax,4h (G2019S LRRK2)) was 81%.

Turning to `CNc1nc(Nc2ccc(C(=O)N3CCN(C[C@H]4CC[C@H](CSC(C)(C)[C@H](NC(=O)C5(F)CC5)C(=O)N5C[C@@H](O)C[C@H]5C(=O)NCc5ccc(-c6scnc6C)cc5)CC4)CC3)cc2OC)ncc1Cl` [cis-XL01126, (2S,4S)-1-((R)-3-((((1R,4R)-4-((4-(4-((5-Chloro-4-(methylamino)pyrimidin-2-yl)amino)-3-methoxybenzoyl)piperazin-1-yl)methyl)cyclohexyl)methyl)thio)-2-(1-fluorocyclopropane-1-carboxamido)-3-methylbutanoyl)-4-hydroxy-N-(4-(4-methylthiazol-5-yl)benzyl)pyrrolidine-2-carboxamide], the “degradation of G2019S LRRK2 (in words)” value in test [3] (4 h) is given as “no degradation”.
